# Data from patent US20110130346A1, “PEPTIDE CONJUGATES FOR DELVERY OF BIOLOGICALLY ACTIVE COMPOUNDS” (ISIS INNOVATION LIMITED, priority 2008, published 2011).
# System: exon and intron 23 of the dystrophin gene
# Test: Example 3: intramuscular injection of glucose-formulated AOs, dystrophin-positive myofibres by immunohistochemistry
# Assay type: in vivo
# Conditions: intramuscular into TA, 8 week old mdx mice, two weeks
# Protocol: Here we study a novel delivery glucose formulation by evaluating it via local intramuscular injection into the mdx mouse tibialis anterior (TA) muscle. Initial experiments were performed in 6-8 week old mdx mice (referred to as 8 weeks) by treatment with a single dose of 5 ug of 2′OMePS AO formulated in 5% glucose. In a parallel control study, age-matched control mdx mice were treated with the same AO dose formulated in standard saline buffer.
# For intramuscular studies the TA muscle of each experimental mdx mouse was injected with a 40 μl dose of PNA and PNA-peptide conjugates with saline at a final concentration of 125 μg/ml, and the contralateral muscle was injected with saline. […]
# Sections of 8 μm were cut from at least two-thirds of the muscle length of TA, quadriceps, gastrocnemius, biceps, abdominal wall and diaphragm muscles and cardiac muscle at 100 μm intervals. […] The maximum number of dystrophin-positive fibres in one section was counted using the Zeiss AxioVision fluorescence microscope. […] Polyclonal antibodies were detected by goat-anti-rabbit IgGs Alexa Fluro 594 (Molecular Probe, UK). […] Polyclonal antibodies were detected by goat-anti-rabbit IgGs Alexa 594 and the monoclonal antibodies by goat-anti-mouse IgGs Alexa 594 (Molecular Probe, UK). […]
substance,measurement,value
5′-ggccaaaccteggcttacct-3′ [PNA],"dystrophin-positive myofibres, 5% glucose formulation compared with saline formulation",significant improvement
